Where a name gives a salt, the structure may show the parent alone. Read-outs that look alike come from different tables or passages of the source.
Experiments:
[1] = test system: NCI-H292 lung cancer cells; assay: FDA drug screening, complete media vs cholesterol-free media with simvastatin (TABLE 2); assay type: cell-based, human
[2] = test system: NCI-H292 lung cancer cells; assay: FDA drug screening, complete media vs cholesterol-free media without statin (TABLE 1); assay type: cell-based, human
[3] = NCI-H292 cells, FDA drug library screen, cholesterol-free media with simvastatin 0.04 μM
[4] = NCI-H292 cells, FDA drug library screen, complete media
[5] = complete media minus cholesterol-free media + simvastatin, >0 enhanced anti-cancer activity, about 0 neutral, <0 antagonist
[6] = Complete minus Cholesterol-free, >0 enhanced anti-cancer activity, about 0 neutral, <0 antagonist
[7] = NCI-H292 cells, cholesterol-free media without statin, FDA drug library screen
[8] = NCI-H292 cells, complete media, FDA drug library screen
[9] = NCI-H292 cells, drug in cholesterol-free media with simvastatin 0.04 μM
[10] = NCI-H292 cells, drug in complete media
[11] = complete media vs cholesterol-free media + simvastatin (0.04 μM), >0 enhanced anti-cancer activity, about 0 neutral, <0 antagonist
[12] = NCI-H292 cells, cholesterol-free media without statin
[13] = NCI-H292 cells, cholesterol-free media with simvastatin 0.04 μM, cell growth value in FDA drug screen
[14] = NCI-H292 cells, complete media, cell growth value in FDA drug screen
[15] = complete vs cholesterol-free media, >0 enhanced anti-cancer activity, about 0 neutral, <0 antagonist

**Q.** For `CC(C)[C@H](N)C(=O)OCC(CO)OCn1cnc2c(=O)nc(N)[nH]c21` (stereo partly drawn) [Valganciclovir (hydrochloride)], which “Cholesterol-free media + simvastatin (0.04 μM)” value [1, 3] is on record?
**A.** 0.9599

**Q.** And the “Complete Media” value [1, 4]?
**A.** 1.178

**Q.** What about the Difference [1, 5] of the same compound?
**A.** 0.22

**Q.** And the Difference [2, 6]?
**A.** −0.03

**Q.** And the Cholesterol-free [2, 7]?
**A.** 1.042

**Q.** What about the Complete [2, 8] of the same compound?
**A.** 1.007

**Q.** With `CCCC(CCC)C(=O)O` [Valproic acid (sodium salt)] as the compound, how does the “Cholesterol-free media + simvastatin (0.04 μM)” value [1, 9] read?
**A.** 0.961

**Q.** What about the “Complete Media” value [1, 10] of the same compound?
**A.** 0.7238

**Q.** And the Difference [1, 11]?
**A.** −0.24

**Q.** What about the Difference [2, 6] of the same compound?
**A.** −0.26

**Q.** What about the Cholesterol-free [2, 12] of the same compound?
**A.** 0.9818

**Q.** What about the Complete ([2]; NCI-H292 cells, complete media) of the same compound?
**A.** 0.7267

**Q.** What does the source list for `CCCC(CCC)C(=O)O` [Valproic acid]?
**A.** Cholesterol-free media + simvastatin (0.04 μM) [1, 9]: 1.017; Complete Media [1, 10]: 0.7948; Difference [1, 11]: −0.22; Difference [2, 6]: −0.29; Cholesterol-free [2, 12]: 0.957; Complete ([2]; NCI-H292 cells, complete media): 0.6641

**Q.** `CCCC(CCC)C(N)=O` [Valpromide] was tested. Which “Cholesterol-free media + simvastatin (0.04 μM)” value [1, 3] did it give?
**A.** 1.404

**Q.** And the “Complete Media” value [1, 4]?
**A.** 1.717

**Q.** And the Difference [1, 5]?
**A.** 0.31

**Q.** What about the Difference [2, 6] of the same compound?
**A.** −0.27

**Q.** And the Cholesterol-free [2, 12]?
**A.** 1.075

**Q.** And the Complete ([2]; NCI-H292 cells, complete media)?
**A.** 0.8044

**Q.** For `CCCCC(=O)OCC(=O)[C@]1(O)Cc2c(O)c3c(c(O)c2[C@@H](O[C@H]2C[C@H](NC(=O)C(F)(F)F)[C@H](O)[C@H](C)O2)C1)C(=O)c1c(OC)cccc1C3=O` [Valrubicin], which “Cholesterol-free media + simvastatin (0.04 μM)” value [1, 13] is on record?
**A.** 0.07499

**Q.** What about the “Complete Media” value [1, 14] of the same compound?
**A.** 0.1845

**Q.** And the Difference [1, 5]?
**A.** 0.11

**Q.** What about the Difference [2, 6] of the same compound?
**A.** 0.02

**Q.** What about the Cholesterol-free [2, 7] of the same compound?
**A.** 0.04622

**Q.** And the Complete [2, 8]?
**A.** 0.06624

**Q.** With `CCCCC(=O)N(Cc1ccc(-c2ccccc2-c2nnn[nH]2)cc1)[C@H](C(=O)O)C(C)C` [Valsartan] as the compound, how does the “Cholesterol-free media + simvastatin (0.04 μM)” value [1, 9] read?
**A.** 1.056

**Q.** What about the “Complete Media” value [1, 10] of the same compound?
**A.** 0.8568

**Q.** And the Difference [1, 11]?
**A.** −0.20

**Q.** And the Difference ([2]; Complete minus Cholesterol-free, greater than 0 enhanced anti-cancer activity, about 0 neutral, below 0 antagonist)?
**A.** −0.09

**Q.** What about the Cholesterol-free ([2]; NCI-H292 cells, FDA drug library screen, cholesterol-free media without statin) of the same compound?
**A.** 0.8984

**Q.** What about the Complete [2, 4] of the same compound?
**A.** 0.8065

**Q.** Which “Cholesterol-free media + simvastatin (0.04 μM)” value [1] does the source give for `CN[C@H](CC(C)C)C(=O)N[C@H]1C(=O)N[C@@H](CC(N)=O)C(=O)N[C@H]2C(=O)N[C@H]3C(=O)N[C@H](C(=O)N[C@H](C(=O)O)c4cc(O)cc(O)c4-c4cc3ccc4O)[C@H](O)c3ccc(c(Cl)c3)Oc3cc2cc(c3O[C@@H]2O[C@H](CO)[C@@H](O)[C@H](O)[C@H]2O[C@H]2C[C@](C)(N)[C@H](O)[C@H](C)O2)Oc2ccc(cc2Cl)[C@H]1O` [Vancomycin (hydrochloride)] here?
**A.** 0.8152

**Q.** And the “Complete Media” value [1]?
**A.** 0.7422

**Q.** And the Difference [1]?
**A.** −0.07

**Q.** What about the Cholesterol-free [2] of the same compound?
**A.** 0.8305

**Q.** And the Complete [2]?
**A.** 0.7537

**Q.** And the Difference [2]?
**A.** −0.08

**Q.** Which results are given for `COc1cc2c(Nc3ccc(Br)cc3F)ncnc2cc1OCC1CCN(C)CC1` [Vandetanib]?
**A.** Cholesterol-free media + simvastatin (0.04 μM) [1, 3]: 0.4174; Complete Media [1, 4]: 0.7391; Difference [1, 5]: 0.32; Cholesterol-free [2, 7]: 0.1902; Complete [2, 8]: 0.3633; Difference [2, 15]: 0.17

**Q.** How did the “Cholesterol-free media + simvastatin (0.04 μM)” value ([1]; NCI-H292 cells, cholesterol-free media with simvastatin 0.04 μM, FDA drug library screen (TABLE 2)) turn out when `COc1cc(C=O)ccc1O` [Vanillin] was run?
**A.** 1.042

**Q.** And the “Complete Media” value ([1]; NCI-H292 cells, complete media, FDA drug library screen (TABLE 2))?
**A.** 1.057

**Q.** What about the Difference ([1]; complete media minus cholesterol-free media + simvastatin (0.04 μM), >0 enhanced anti-cancer activity, about 0 neutral, <0 antagonist) of the same compound?
**A.** 0.02

**Q.** And the Cholesterol-free [2, 7]?
**A.** 0.7241

**Q.** What about the Complete [2, 8] of the same compound?
**A.** 0.863

**Q.** What about the Difference [2, 15] of the same compound?
**A.** 0.14

**Q.** What does the source list for `CCCc1nc(C)c2c(=O)[nH]c(-c3cc(S(=O)(=O)N4CCN(CC)CC4)ccc3OCC)nn12` [Vardenafil (hydrochloride)]?
**A.** Cholesterol-free media + simvastatin (0.04 μM) [1, 13]: 1.201; Complete Media [1, 14]: 1.248; Difference [1, 5]: 0.05; Cholesterol-free [2, 12]: 1.352; Complete ([2]; NCI-H292 cells, complete media): 0.985; Difference ([2]; complete vs cholesterol-free media, greater than 0 enhanced anti-cancer activity, about 0 neutral, below 0 antagonists): −0.37

**Q.** `c1cnc2cc3c(cc2n1)[C@@H]1CNC[C@H]3C1` [Varenicline (Hydrochloride)] was tested. Which “Cholesterol-free media + simvastatin (0.04 μM)” value [1, 9] did it give?
**A.** 1.193

**Q.** What about the “Complete Media” value [1, 10] of the same compound?
**A.** 0.9876

**Q.** What about the Difference [1, 11] of the same compound?
**A.** −0.21

**Q.** And the Difference [2, 6]?
**A.** −0.20

**Q.** What about the Cholesterol-free [2, 12] of the same compound?
**A.** 1.095

**Q.** And the Complete ([2]; NCI-H292 cells, complete media)?
**A.** 0.8911
